# Test results from patent US11013780B2, “Methods of treating female infertility” (Myovant Sciences GmbH, priority 2016, dated 2021).
# pEC50: −log10 of the molar value. “And” between values parts separate entries of the source, which are not always exact repeats. Equal entries are not always repeated. Where two headings read alike, the source gives them in different places. Where a SMILES comes first, the peptide text is derived from it. [ ]: non-standard residue; d: D form. Arg(Me) = CNC(=N)NCCC[C@H](N)C(=O)O; Hyp = O=C(O)[C@@H]1C[C@@H](O)CN1; azaGly = NNC(=O)O
# Columns and labels:
# [1] = In vitro distribution into blood cells, rats; type: in vitro ADME
# Method: (§1) The in vitro distribution ratios of [^14C]API-MA into the blood cells at the concentrations of 0.01, 0.1, 1, and 10 μg/mL API-FB (free form) were 7.8%, 8.0%, 7.1%, and 4.8% for rats, 2.4%, 2.0%, 1.6%, and 1.2% for dogs, and 2.0%, 0.0%, 0.0%, and 0.5% for humans, respectively. […] The in vitro plasma protein binding ratios of [^14C]API-FB in rats, dogs, monkeys, and humans were determined by the ultracentrifugation method. In addition, the protein binding to human serum albumin (HSA), α1-acid glycoprotein (AGP), and HSA/AGP was investigated. […] In rats and dogs, a slight decrease in the binding ratio at the concentration range between 0.1 and 1.0 μg/mL API-FB was observed. In monkeys and humans, the binding was independent of the drug concentrations from 0.01 to 10 μg/mL API-FB.
# dog KISS1R = molecular target: T1, dog KISS1R (Canis lupus familiaris, UniProt A0A8I3S0V2); test: Intracellular Ca2+ mobilization (fluorometric imaging plate reader), dog KISS1R; type: cell-based
# T1 construct: expressed in transfected cells; host or cells: Chinese hamster ovary dihydrofolate reductase negative cells
# T1 sequence (A0A8I3S0V2 1-382): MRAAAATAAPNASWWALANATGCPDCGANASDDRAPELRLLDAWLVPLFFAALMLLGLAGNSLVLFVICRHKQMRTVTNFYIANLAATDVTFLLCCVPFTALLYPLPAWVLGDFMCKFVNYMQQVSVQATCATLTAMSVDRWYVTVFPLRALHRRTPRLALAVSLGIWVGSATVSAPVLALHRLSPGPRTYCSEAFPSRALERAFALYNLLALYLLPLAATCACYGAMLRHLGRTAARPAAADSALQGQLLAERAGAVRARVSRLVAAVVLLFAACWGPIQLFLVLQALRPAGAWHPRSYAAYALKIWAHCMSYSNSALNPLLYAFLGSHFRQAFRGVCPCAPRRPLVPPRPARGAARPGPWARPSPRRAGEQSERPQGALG
# Method: The effects of API-MA on intracellular Ca^2+ mobilization in KISS1R-expressing recombinant cells were evaluated by performing the fluorometric imaging plate reader assay.
# serum LH and PSA = test: 1-month depot pharmacodynamics, prostate cancer patients; type: in vivo, human
# Method: Nine patients with prostate cancer were enrolled in another study, three in each dose group (6, 12, and 24 mg). Patients received API-MA as a single 1-month depot injection that was intended to initiate both a high-burst release of API-MA and rapid stimulation of hypothalamic-pituitary-gonadal axis. Overall, 4 of 9 patients received concomitant GnRH therapy. Assessments of pharmacodynamics included LH concentrations and serum PSA concentrations. Results were grouped based on patients who were or were not receiving concomitant GnRH therapy.
# [2] = Single dose PK, phase 1, healthy Japanese men; type: in vivo, human; conditions: for AUC(0-inf) / CL/F / Cmax / half-life / Tmax / dose excreted: male, human; for AUC(0-inf) / CL/F / Cmax / half-life / Tmax: plasma; for dose excreted: urine
# Method: Thirty-seven healthy Japanese male subjects aged 50 to 74 years were enrolled into nine cohorts. Subjects enrolled in the first […] cohorts received 0.001, 0.004, 0.01, 0.04, 0.1, 0.25 or 0.5 mg of API-MA or placebo by single SC bolus. In the 0.001 mg cohort, 3 subjects received API-MA and two received placebo. In the remaining cohorts, 3 subjects received API-MA and one received placebo. Subjects enrolled in the eighth and ninth cohorts received 0.25 or 0.5 mg of API-MA or placebo by single 2-hour SC infusion. In both cohorts, 3 subjects received API-MA and one received placebo. The plasma PK analysis set consisted of 31 subjects (bolus cohorts: 25; infusion cohorts: 6), and the urine PK analysis set consisted of 35 subjects (bolus cohorts: 27; infusion cohorts: 8).
# To measure urinary excretion of API-MA, urine specimens were collected at the following nominal times: predose, 0 to 4, 4 to 8, 8 to 12, 12 to 24, 24 to 36, 36 to 48 and 48 to 72 hours postdose.
# in vitro = in vitro ADME, rats, dogs, monkeys, humans; conditions: rat, dog, monkey, human, plasma
# Method: as §1
# [3] = sc, 0.001 mg, single SC bolus 0.001 mg, mean
# [4] = sc, 0.004 mg, single SC bolus 0.004 mg, mean
# [5] = sc, 0.01 mg, single SC bolus 0.01 mg, mean
# [6] = sc, 0.04 mg, single SC bolus 0.04 mg, mean
# [7] = sc, 0.1 mg, single SC bolus 0.1 mg, mean
# [8] = sc, 0.25 mg, single 2-hour SC INF 0.25 mg (plasma N = 1)
# [9] = sc, 0.25 mg, single SC bolus 0.25 mg, mean
# [10] = sc, 0.5 mg, single 2-hour SC INF 0.5 mg, mean
# [11] = sc, 0.5 mg, single SC bolus 0.5 mg, mean
smiles,measurement,setting,value
"CC(=O)O.CNC(=N)NCCC[C@H](NC(=O)[C@H](CC(C)C)NC(=O)NNC(=O)[C@H](Cc1ccccc1)NC(=O)[C@@H](NC(=O)[C@H](CC(N)=O)NC(=O)[C@@H]1C[C@@H](O)CN1C(=O)[C@@H](Cc1ccc(O)cc1)NC(C)=O)[C@@H](C)O)C(=O)N[C@@H](Cc1c[nH]c2ccccc12)C(N)=O [API-MA, 2-(N-Acetyl-D-tyrosyl-trans-4-hydroxy-L-prolyl-Lasparaginyl-L-threonyl-L-phenylalanyl)-hydrazinocarbonyl-L-leucyl-Nω-methyl-L-arginyl-L-tryptophanamide monoacetate] (Ac-[dY][Hyp]NTF[azaGly]L[Arg(Me)]W-NH2)",Distribution ratio into blood cells,[1]; 0.01 μg/mL API-FB,7.8%
same,Distribution ratio into blood cells,[1]; 0.1 μg/mL API-FB,8.0%
same,Distribution ratio into blood cells,[1]; 1 μg/mL API-FB,7.1%
same,Distribution ratio into blood cells,[1]; 10 μg/mL API-FB,4.8%
same,pEC50,dog KISS1R,8.70
same,Ratio of EC50 of API-MA to kisspeptin (45-54),dog KISS1R; dog KISS1R,1.2
same,"Greatest percent decrease from baseline in PSA, individual patients","serum LH and PSA; month 1, day 29, 6 mg dose group",8% and 19%
same,"Greatest percent decrease from baseline in PSA, individual patients","serum LH and PSA; month 1, day 29, 12 mg dose group",25% and 62%
same,"Greatest percent decrease from baseline in PSA, individual patients","serum LH and PSA; month 1, day 29, 24 mg dose group",88% and 74% and 79%
same,Greatest reduction in PSA,"serum LH and PSA; month 2 day 29, a patient in the 24 mg dose group",91%
same,Time by which urinary excretion was essentially complete,[2]; cumulative urinary excretion,≤ 24 h
same,AUC(0-inf),[2]; [3],0.0541 ng·h/mL
same,CL/F,[2]; [3],310 mL/min
same,Cmax,[2]; [3],0.0201 ng/mL
same,half-life,"[2]; sc, 0.001 mg, single SC bolus 0.001 mg, mean, read-out: T½ (converted)",1.59 h
same,Tmax,"[2]; sc, 0.001 mg, single SC bolus 0.001 mg, read-out: Tmax, median (range)",0.5 h
same,AUC(0-inf),[2]; [4],0.205 ng·h/mL
same,CL/F,[2]; [4],330 mL/min
same,Cmax,[2]; [4],0.00617 ng/mL
same,half-life,"[2]; sc, 0.004 mg, single SC bolus 0.004 mg, mean, read-out: T½ (converted)",1.91 h
same,Tmax,"[2]; sc, 0.004 mg, single SC bolus 0.004 mg, read-out: Tmax, median (range)",0.5 h
same,AUC(0-inf),[2]; [5],0.671 ng·h/mL
same,CL/F,[2]; [5],250 mL/min
same,Cmax,[2]; [5],0.221 ng/mL
same,half-life,"[2]; sc, 0.01 mg, single SC bolus 0.01 mg, mean, read-out: T½ (converted)",1.82 h
same,Tmax,"[2]; sc, 0.01 mg, single SC bolus 0.01 mg, read-out: Tmax, median (range)",0.5 h
same,AUC(0-inf),[2]; [6],2.61 ng·h/mL
same,CL/F,[2]; [6],278 mL/min
same,Cmax,[2]; [6],0.966 ng/mL
same,half-life,"[2]; sc, 0.04 mg, single SC bolus 0.04 mg, mean, read-out: T½ (converted)",3.35 h
same,Tmax,"[2]; sc, 0.04 mg, single SC bolus 0.04 mg, read-out: Tmax, median (range)",0.5 h
same,AUC(0-inf),[2]; [7],5.79 ng·h/mL
same,CL/F,[2]; [7],298 mL/min
same,Cmax,[2]; [7],2.42 ng/mL
same,half-life,"[2]; sc, 0.1 mg, single SC bolus 0.1 mg, mean, read-out: T½ (converted)",3.58 h
same,Tmax,"[2]; sc, 0.1 mg, single SC bolus 0.1 mg, read-out: Tmax, median (range)",0.375 h
same,AUC(0-inf),[2]; [8],13.3 ng·h/mL
same,CL/F,[2]; [8],313 mL/min
same,Cmax,[2]; [8],4.02 ng/mL
same,Tmax,"[2]; sc, 0.25 mg, single 2-hour SC INF 0.25 mg (plasma N = 1), read-out: Tmax, median (range)",2.25 h
same,half-life,"[2]; sc, 0.25 mg, single 2-hour SC INF 0.25 mg (plasma N = 1), read-out: T½ (converted)",3.77 h
same,AUC(0-inf),[2]; [9],18.3 ng·h/mL
same,CL/F,[2]; [9],228 mL/min
same,Cmax,[2]; [9],5.9 ng/mL
same,half-life,"[2]; sc, 0.25 mg, single SC bolus 0.25 mg, mean, read-out: T½ (converted)",4.09 h
same,Tmax,"[2]; sc, 0.25 mg, single SC bolus 0.25 mg, read-out: Tmax, median (range)",0.75 h
same,AUC(0-inf),[2]; [10],34.6 ng·h/mL
same,CL/F,[2]; [10],243 mL/min
same,Cmax,[2]; [10],8.23 ng/mL
same,half-life,"[2]; sc, 0.5 mg, single 2-hour SC INF 0.5 mg, mean, read-out: T½ (converted)",4.02 h
same,Tmax,"[2]; sc, 0.5 mg, single 2-hour SC INF 0.5 mg, read-out: Tmax, median (range)",2.5 h
same,AUC(0-inf),[2]; [11],30 ng·h/mL
same,CL/F,[2]; [11],282 mL/min
same,Cmax,[2]; [11],9.05 ng/mL
same,half-life,"[2]; sc, 0.5 mg, single SC bolus 0.5 mg, mean, read-out: T½ (converted)",4.27 h
same,Tmax,"[2]; sc, 0.5 mg, single SC bolus 0.5 mg, read-out: Tmax, median (range)",0.5 h
same,Tmax,"[2]; sc, SC bolus, read-out: Median Tmax, range over cohorts",0.375 to 0.75 h
same,half-life,"[2]; subcutaneous, 0.5 mg, 0.25 and 0.5 mg, read-out: Mean T1/2 at the highest doses",3.77 to 4.27 h
same,dose excreted,"[2]; sc, 0.001 mg, single SC bolus 0.001 mg, mean, read-out: Fe (urine)",0%
same,dose excreted,"[2]; sc, 0.004 mg, single SC bolus 0.004 mg, mean, read-out: Fe (urine)",6.16%
same,dose excreted,"[2]; sc, 0.01 mg, single SC bolus 0.01 mg, mean, read-out: Fe (urine)",5.4%
same,dose excreted,"[2]; sc, 0.04 mg, single SC bolus 0.04 mg, mean, read-out: Fe (urine)",4.24%
same,dose excreted,"[2]; sc, 0.1 mg, single SC bolus 0.1 mg, mean, read-out: Fe (urine)",5.2%
same,dose excreted,"[2]; sc, 0.25 mg, single 2-hour SC INF 0.25 mg, mean, read-out: Fe (urine)",6.21%
same,dose excreted,"[2]; sc, 0.25 mg, single SC bolus 0.25 mg, mean, read-out: Fe (urine)",7.1%
same,dose excreted,"[2]; sc, 0.5 mg, single 2-hour SC INF 0.5 mg, mean, read-out: Fe (urine)",5.22%
same,dose excreted,"[2]; sc, 0.5 mg, single SC bolus 0.5 mg, mean, read-out: Fe (urine)",6.33%
same,dose excreted,"[2]; sc, 0.004 to 0.5 mg, bolus and infusion, read-out: Mean Fe, range over cohorts",4.24 to 7.1%
same,API-MA in urine,[2]; single SC bolus 0.001 mg,No API-MA was detected
"CNC(=N)NCCC[C@H](NC(=O)[C@H](CC(C)C)NC(=O)NNC(=O)[C@H](Cc1ccccc1)NC(=O)[C@@H](NC(=O)[C@H](CC(N)=O)NC(=O)[C@@H]1C[C@@H](O)CN1C(=O)[C@@H](Cc1ccc(O)cc1)NC(C)=O)[C@@H](C)O)C(=O)N[C@@H](Cc1c[nH]c2ccccc12)C(N)=O [Compound 1, 2-(N-Acetyl-D-tyrosyl-trans-4-hydroxy-L-prolyl-L-asparaginyl-L-threonyl-L-phenylalanyl)-hydrazinocarbonyl-L-leucyl-Nω-methyl-L-arginyl-L-tryptophanamide] (Ac-[dY][Hyp]NTF[azaGly]L[Arg(Me)]W-NH2)",fraction unbound,in vitro,0.267 to 0.447
